Test results taken from ChEMBL document CHEMBL1155889, “Structure-activity relationship studies on vitamin D lactam derivatives as vitamin D receptor antagonist” (Bioorg Med Chem Lett, 2008).
Active and inactive are the calls of the source. No cut-off for these calls is given here.

Key:
[1] = target: T1, Vitamin D3 receptor (Gallus gallus) (UniProt O42392); experiment: Displacement of [3H]1,25-(OH)2-D3 from chick intestinal VDR relative to 1,25-(OH)2-D3
T1 sequence (whole entry): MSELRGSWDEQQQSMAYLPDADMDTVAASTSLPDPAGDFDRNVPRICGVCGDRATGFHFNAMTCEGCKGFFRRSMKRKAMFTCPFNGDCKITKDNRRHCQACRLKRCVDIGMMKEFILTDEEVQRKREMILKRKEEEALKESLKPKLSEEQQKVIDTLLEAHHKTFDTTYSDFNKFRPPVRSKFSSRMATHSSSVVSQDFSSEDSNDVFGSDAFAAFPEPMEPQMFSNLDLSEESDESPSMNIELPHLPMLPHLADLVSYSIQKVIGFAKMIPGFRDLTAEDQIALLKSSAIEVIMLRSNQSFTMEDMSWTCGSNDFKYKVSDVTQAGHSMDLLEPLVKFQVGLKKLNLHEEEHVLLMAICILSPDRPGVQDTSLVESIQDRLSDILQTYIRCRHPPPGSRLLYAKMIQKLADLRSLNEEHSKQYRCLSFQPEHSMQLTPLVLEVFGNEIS

[2] = target: T2, Vitamin D3 receptor (Homo sapiens) (UniProt P11473); experiment: Antagonist activity at VDR in human HL60 cells assessed as effect on 1,25-(OH)2-D3-induced cell differentiation at 3 uM by NBT assay; type: functional, cell-based; conditions: HL-60
T2 sequence (whole entry): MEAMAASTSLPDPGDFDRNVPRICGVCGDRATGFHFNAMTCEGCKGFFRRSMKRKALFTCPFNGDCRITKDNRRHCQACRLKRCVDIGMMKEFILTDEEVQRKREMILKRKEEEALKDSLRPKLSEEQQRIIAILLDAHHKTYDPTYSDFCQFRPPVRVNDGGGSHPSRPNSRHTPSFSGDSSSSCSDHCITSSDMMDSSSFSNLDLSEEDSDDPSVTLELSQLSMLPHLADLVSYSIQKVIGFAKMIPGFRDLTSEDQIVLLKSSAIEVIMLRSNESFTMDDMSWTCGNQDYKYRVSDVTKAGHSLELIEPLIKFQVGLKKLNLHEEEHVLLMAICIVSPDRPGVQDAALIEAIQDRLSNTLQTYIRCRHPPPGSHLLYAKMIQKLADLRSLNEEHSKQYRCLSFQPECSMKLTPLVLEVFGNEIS

[3] = target: T2, Vitamin D3 receptor (Homo sapiens); experiment: Antagonist activity at VDR in human HL60 cells assessed as effect on 1,25-(OH)2-D3-induced cell differentiation at 1 uM by NBT assay; type: functional, cell-based; conditions: HL-60
[4] = target: T2, Vitamin D3 receptor (Homo sapiens); experiment: Agonist activity at human VDR expressed in monkey COS7 cells at <10 uM by luciferase reporter gene assay; type: functional, cell-based; conditions: COS-7

| Compound | relative binding affinity (RBA) [1] | Activity [2] | Activity [3] | Activity [4] |
| --- | --- | --- | --- | --- |
| C=C1/C(=C\C=C2/CCC[C@]3(C)[C@@H]([C@H](C)C[C@@H]4C[C@](C)(O)C(=O)N4Cc4cc(C(F)(F)F)cc(C(F)(F)F)c4)CC[C@@H]23)C[C@@H](O)C[C@@H]1O | < 1520 | inactive | – | – |
| C=C1/C(=C\C=C2/CCC[C@]3(C)[C@@H]([C@H](C)C[C@H]4C[C@@](C)(O)C(=O)N4CCc4cc(C(F)(F)F)cc(C(F)(F)F)c4)CC[C@@H]23)C[C@@H](O)C[C@@H]1O | 1180 | inactive | – | – |
| C=C1/C(=C\C=C2/CCC[C@]3(C)[C@@H]([C@H](C)C[C@H]4C[C@](C)(O)C(=O)N4CCc4cc(C(F)(F)F)cc(C(F)(F)F)c4)CC[C@@H]23)C[C@@H](O)C[C@@H]1O | 42 | inactive | – | – |
| C=C1/C(=C\C=C2/CCC[C@]3(C)[C@@H]([C@H](C)C[C@@H]4C[C@@](C)(O)C(=O)N4CCCc4cc(C(F)(F)F)cc(C(F)(F)F)c4)CC[C@@H]23)C[C@@H](O)C[C@@H]1O | < 5400 | – | inactive | – |
| C=C1/C(=C\C=C2/CCC[C@]3(C)[C@@H]([C@H](C)C[C@H]4C[C@@](C)(O)C(=O)N4CCCc4cc(C(F)(F)F)cc(C(F)(F)F)c4)CC[C@@H]23)C[C@@H](O)C[C@@H]1O | < 5400 | – | inactive | – |
| C=C1/C(=C\C=C2/CCC[C@]3(C)[C@@H]([C@H](C)C[C@@H]4C[C@](C)(O)C(=O)N4CCc4cc(C(F)(F)F)cc(C(F)(F)F)c4)CC[C@@H]23)C[C@@H](O)C[C@@H]1O | 757 | inactive | – | – |
| C=C1/C(=C\C=C2/CCC[C@]3(C)[C@@H]([C@H](C)C[C@H]4C[C@](C)(O)C(=O)N4CCCc4cc(C(F)(F)F)cc(C(F)(F)F)c4)CC[C@@H]23)C[C@@H](O)C[C@@H]1O | 181 | – | inactive | – |
| C=C1/C(=C\C=C2/CCC[C@]3(C)[C@@H]([C@H](C)C[C@@H]4C[C@@](C)(O)C(=O)N4Cc4cc(C(F)(F)F)cc(C(F)(F)F)c4)CC[C@@H]23)C[C@@H](O)C[C@@H]1O | < 1520 | inactive | – | – |
| C=C1/C(=C\C=C2/CCC[C@]3(C)[C@@H]([C@H](C)C[C@H]4C[C@@](C)(O)C(=O)N4Cc4cc(C(F)(F)F)cc(C(F)(F)F)c4)CC[C@@H]23)C[C@@H](O)C[C@@H]1O | < 1520 | inactive | – | – |
| C=C1/C(=C\C=C2/CCC[C@]3(C)[C@@H]([C@H](C)C[C@H]4C[C@](C)(O)C(=O)N4CCc4ccccc4)CC[C@@H]23)C[C@@H](O)C[C@@H]1O | 12.5 | – | – | – |
| C=C1/C(=C\C=C2/CCC[C@]3(C)[C@@H]([C@H](C)C[C@@H]4C[C@@](C)(O)C(=O)N4CCc4cc(C(F)(F)F)cc(C(F)(F)F)c4)CC[C@@H]23)C[C@@H](O)C[C@@H]1O | 236 | inactive | – | – |
| C=C1/C(=C\C=C2/CCC[C@]3(C)[C@@H]([C@H](C)C[C@H]4C[C@](C)(O)C(=O)N4Cc4cc(C(F)(F)F)cc(C(F)(F)F)c4)CC[C@@H]23)C[C@@H](O)C[C@@H]1O | 138 | inactive | – | – |
| C=C1/C(=C\C=C2/CCC[C@]3(C)[C@@H]([C@H](C)C[C@@H]4C[C@](C)(O)C(=O)N4CCCc4cc(C(F)(F)F)cc(C(F)(F)F)c4)CC[C@@H]23)C[C@@H](O)C[C@@H]1O | < 5400 | – | inactive | – |

Continued, values first:

| relative binding affinity (RBA) [1] | Activity [2] | Activity [3] | Activity [4] | Compound |
| --- | --- | --- | --- | --- |
| 11.9 | – | – | – | C=C1/C(=C\C=C2/CCC[C@]3(C)[C@@H]([C@H](C)C[C@H]4C[C@](C)(O)C(=O)N4Cc4cc(OCCC)cc(OCCC)c4)CC[C@@H]23)C[C@@H](O)C[C@@H]1O |
| < 1520 | inactive | – | – | C=C1/C(=C\C=C2/CCC[C@]3(C)[C@@H]([C@H](C)C[C@H]4C[C@@](C)(O)C(=O)N4CCCc4cc(OC)cc(OC)c4)CC[C@@H]23)C[C@@H](O)C[C@@H]1O |
| 60 | – | – | – | C=C1/C(=C\C=C2/CCC[C@]3(C)[C@@H]([C@H](C)C[C@@H]4C[C@](C)(O)C(=O)N4Cc4cc(OC)cc(OC)c4)CC[C@@H]23)C[C@@H](O)C[C@@H]1O |
| 131 | – | – | – | C=C1/C(=C\C=C2/CCC[C@]3(C)[C@@H]([C@H](C)C[C@H]4C[C@@](C)(O)C(=O)N4Cc4cc(OC)cc(OC)c4)CC[C@@H]23)C[C@@H](O)C[C@@H]1O |
| 57 | – | – | – | C=C1/C(=C\C=C2/CCC[C@]3(C)[C@@H]([C@H](C)C[C@H]4C[C@](C)(O)C(=O)N4CCCc4cc(OC)cc(OC)c4)CC[C@@H]23)C[C@@H](O)C[C@@H]1O |
| 18.2 | – | – | – | C=C1/C(=C\C=C2/CCC[C@]3(C)[C@@H]([C@H](C)C[C@H]4C[C@](C)(O)C(=O)N4Cc4cc(OCCCC)cc(OCCCC)c4)CC[C@@H]23)C[C@@H](O)C[C@@H]1O |
| 185 | – | – | – | C=C1/C(=C\C=C2/CCC[C@]3(C)[C@@H]([C@H](C)C[C@@H]4C[C@@](C)(O)C(=O)N4Cc4cc(OC)cc(OC)c4)CC[C@@H]23)C[C@@H](O)C[C@@H]1O |
| 3.5 | – | – | – | C=C1/C(=C\C=C2/CCC[C@]3(C)[C@@H]([C@H](C)C[C@H]4C[C@](C)(O)C(=O)N4Cc4cc(OCC)cc(OCC)c4)CC[C@@H]23)C[C@@H](O)C[C@@H]1O |
| < 1520 | – | inactive | – | C=C1/C(=C\C=C2/CCC[C@]3(C)[C@@H]([C@H](C)C[C@@H]4C[C@](C)(O)C(=O)N4CCc4cc(OC)cc(OC)c4)CC[C@@H]23)C[C@@H](O)C[C@@H]1O |
| 36.4 | – | – | – | C=C1/C(=C\C=C2/CCC[C@]3(C)[C@@H]([C@H](C)C[C@H]4C[C@](C)(O)C(=O)N4Cc4ccccc4)CC[C@@H]23)C[C@@H](O)C[C@@H]1O |
| 9.6 | – | inactive | inactive | C=C1/C(=C\C=C2/CCC[C@]3(C)[C@@H]([C@H](C)C[C@H]4C[C@](C)(O)C(=O)N4Cc4cc(O)cc(O)c4)CC[C@@H]23)C[C@@H](O)C[C@@H]1O |
| 12 | – | – | – | C=C1/C(=C\C=C2/CCC[C@]3(C)[C@@H]([C@H](C)C[C@H]4C[C@](C)(O)C(=O)N4CCc4cc(OC)cc(OC)c4)CC[C@@H]23)C[C@@H](O)C[C@@H]1O |
| 284 | – | inactive | – | C=C1/C(=C\C=C2/CCC[C@]3(C)[C@@H]([C@H](C)C[C@@H]4C[C@@](C)(O)C(=O)N4CCc4cc(OC)cc(OC)c4)CC[C@@H]23)C[C@@H](O)C[C@@H]1O |
| < 1520 | inactive | – | – | C=C1/C(=C\C=C2/CCC[C@]3(C)[C@@H]([C@H](C)C[C@@H]4C[C@@](C)(O)C(=O)N4CCCc4cc(OC)cc(OC)c4)CC[C@@H]23)C[C@@H](O)C[C@@H]1O |
| 1.9 | – | – | – | C=C1/C(=C\C=C2/CCC[C@]3(C)[C@@H]([C@H](C)C[C@H]4C[C@](C)(O)C(=O)N4Cc4cc(OC)cc(OC)c4)CC[C@@H]23)C[C@@H](O)C[C@@H]1O |
| < 1520 | inactive | – | – | C=C1/C(=C\C=C2/CCC[C@]3(C)[C@@H]([C@H](C)C[C@@H]4C[C@](C)(O)C(=O)N4CCCc4cc(OC)cc(OC)c4)CC[C@@H]23)C[C@@H](O)C[C@@H]1O |
| < 1520 | – | inactive | – | C=C1/C(=C\C=C2/CCC[C@]3(C)[C@@H]([C@H](C)C[C@H]4C[C@@](C)(O)C(=O)N4CCc4cc(OC)cc(OC)c4)CC[C@@H]23)C[C@@H](O)C[C@@H]1O |
